Measurements reported in patent US20230085307A1, “PYRIDAZINONE COMPOUND AND HERBICIDE” (NISSAN CHEMICAL CORPORATION, priority 2019, published 2023).

Key:
Japanese bulrush = assay: Test Example 1: herbicidal activity, application before weed generation under submerged conditions (Table 16, symbol B); format: in vivo, Japanese bulrush (Schoenoplectus juncoides); conditions: amount of applied herbicide 320 g/ha
How it was run: (§1)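 Alluvial soil was flooded to 4 cm depth, weed seeds were sown mixed and 2.5-leaf rice seedlings were transplanted. On sowing day, the compound's emulsion, diluted in water to a set dose, was applied to the water surface. Plants grew at 25–30 °C and were scored 0–5 after three weeks.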

rice flat sedge = assay: Test Example 3: herbicidal effect by foliage application, Wagner pot (Table 18, symbol E); format: in vivo, rice flat sedge (Cyperus iria); conditions: 320 g/ha
How it was run: (§2)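 Plants were sown in alluvial soil held under 0.1–0.5 cm standing water and grown 14 days in a greenhouse at 25–30 °C. An emulsifiable formulation, water-diluted to the set dose, was then sprayed onto the foliage, and effects were scored three weeks later using previously defined criteria.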

lambsquarters = assay: Test Example 5: herbicidal effect by foliage application, plastic box (Table 20, symbol O); format: in vivo, lambsquarters (Chenopodium album); conditions: for Herbicidal effect by foliage application, O: lambsquarters: amount of applied herbicide 320 g/ha, foliage application after 14-day growth, evaluated three weeks after application; for herbicidal effect on lambsquarters (O): foliage application, 320 g/ha, three weeks after application
How it was run: (§3)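 Post-emergence foliar test in sterilized diluvial soil. Compound applied as water-diluted emulsion at a predetermined rate to 14-day-old plants; evaluation at three weeks.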

green foxtail = assay: Test Example 5: herbicidal effect by foliage application, plastic box (Table 20, symbol G); format: in vivo, green foxtail (Setaria viridis); conditions: for Herbicidal effect by foliage application, G: green foxtail: amount of applied herbicide 320 g/ha, foliage application after 14-day growth, evaluated three weeks after application; for herbicidal effect on green foxtail (G): foliage application, 320 g/ha, three weeks after application
How it was run: as §3

southern crabgrass [1] = assay: Test Example 4: herbicidal effect by soil treatment (Table 19, symbol F); format: in vivo, southern crabgrass (Digitaria ciliaris); conditions: amount of applied herbicide 320 g/ha
How it was run: (§4)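 Emulsion of test compound, water-diluted to predetermined amount, sprayed on soil after sowing (seed depth ~1.5 cm, sterilized diluvial soil). Greenhouse, 25–30° C. Effect graded at three weeks post-spray.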

windgrass [2] = assay: Test Example 4: herbicidal effect by soil treatment (Table 19, symbol L); format: in vivo, windgrass (Apera spica-venti); conditions: amount of applied herbicide 320 g/ha
How it was run: as §4

southern crabgrass [3] = assay: Test Example 5: herbicidal effect by foliage application, plastic box (Table 20, symbol F); format: in vivo, southern crabgrass (Digitaria ciliaris); conditions: for Herbicidal effect by foliage application, F: southern crabgrass: amount of applied herbicide 320 g/ha, foliage application after 14-day growth, evaluated three weeks after application; for herbicidal effect on southern crabgrass (F): foliage application, 320 g/ha, three weeks after application
How it was run: as §3

Chinese sprangletop = assay: Test Example 3: herbicidal effect by foliage application, Wagner pot (Table 18, symbol D); format: in vivo, chinese sprangletop (Leptochloa chinensis); conditions: 320 g/ha
How it was run: as §2

wild oat = assay: Test Example 5: herbicidal effect by foliage application, plastic box (Table 20, symbol I); format: in vivo, wild oat (Avena fatua); conditions: for Herbicidal effect by foliage application, I: wild oat: amount of applied herbicide 320 g/ha, foliage application after 14-day growth, evaluated three weeks after application; for herbicidal effect on wild oat (I): foliage application, 320 g/ha, three weeks after application
How it was run: as §3

windgrass [4] = assay: Test Example 5: herbicidal effect by foliage application, plastic box (Table 20, symbol L); format: in vivo, windgrass (Apera spica-venti); conditions: for Herbicidal effect by foliage application, L: windgrass: amount of applied herbicide 320 g/ha, foliage application after 14-day growth, evaluated three weeks after application; for herbicidal effect on windgrass (L): foliage application, 320 g/ha, three weeks after application
How it was run: as §3

persian speedwell = assay: Test Example 4: herbicidal effect by soil treatment (Table 19, symbol R); format: in vivo, Persian speedwell (Veronica persica); conditions: amount of applied herbicide 320 g/ha
How it was run: as §4

barnyard grass = assay: Test Example 5: herbicidal effect by foliage application, plastic box (Table 20, symbol H); format: in vivo, barnyard grass (Echinochloa crus-galli); conditions: for Herbicidal effect by foliage application, H: barnyard grass: amount of applied herbicide 320 g/ha, foliage application after 14-day growth, evaluated three weeks after application; for herbicidal effect on barnyard grass (H): foliage application, 320 g/ha, three weeks after application
How it was run: as §3

oval-leafed pondweed [5] = assay: Test Example 1: herbicidal activity, application before weed generation under submerged conditions (Table 16, symbol C); format: in vivo, oval-leafed pondweed (Monochoria vaginalis); conditions: amount of applied herbicide 320 g/ha
How it was run: as §1

late watergrass = assay: Test Example 1: herbicidal activity, application before weed generation under submerged conditions (Table 16, symbol A); format: in vivo, late watergrass (Echinochloa oryzicola); conditions: amount of applied herbicide 320 g/ha
How it was run: as §1

oval-leafed pondweed [6] = assay: Test Example 2: herbicidal activity, application during weed generation under submerged conditions (Table 17, symbol C); format: in vivo, oval-leafed pondweed (Monochoria vaginalis); conditions: AAH 320 g/ha; application during weed generation, submerged conditions
How it was run: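 In this pot test, flooded alluvial soil (water depth 4 cm) holds all three species sown as a mixture. Once seedlings have one to two leaves, the compound's emulsion, thinned with water to the intended dose, is poured on the water; grading follows after three weeks on the earlier criteria.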

redroot pigweed = assay: Test Example 4: herbicidal effect by soil treatment (Table 19, symbol N); format: in vivo, redroot pigweed (Amaranthus retroflexus); conditions: amount of applied herbicide 320 g/ha
How it was run: as §4

SMILES	Herbicidal effect, B: Japanese bulrush (Japanese bulrush)	herbicidal effect on rice flat sedge (E) (rice flat sedge)	Herbicidal effect by foliage application, O: lambsquarters (lambsquarters)	Herbicidal effect by foliage application, G: green foxtail (green foxtail)	F: southern crabgrass, herbicidal effect grade (southern crabgrass [1])	L: windgrass, herbicidal effect grade (windgrass [2])	Herbicidal effect by foliage application, F: southern crabgrass (southern crabgrass [3])	herbicidal effect on Chinese sprangletop (D) (Chinese sprangletop)	Herbicidal effect by foliage application, I: wild oat (wild oat)	R: persian speedwell, herbicidal effect grade (persian speedwell)	Herbicidal effect, C: oval-leafed pondweed (oval-leafed pondweed [5])	Herbicidal effect, A: late watergrass (late watergrass)	herbicidal effect rating, C: oval-leafed pondweed (oval-leafed pondweed [6])	N: redroot pigweed, herbicidal effect grade (redroot pigweed)	herbicidal effect on lambsquarters (O) (lambsquarters)	herbicidal effect on green foxtail (G) (green foxtail)	herbicidal effect on southern crabgrass (F) (southern crabgrass [3])	herbicidal effect on wild oat (I) (wild oat)	herbicidal effect on windgrass (L) (windgrass [4])	herbicidal effect on barnyard grass (H) (barnyard grass)	also measured
CCCC(=O)Oc1c(C)nn(C)c(=O)c1-c1c(-c2ccccc2OC)sc2cc(F)c(F)cc12 [5-012]	3 (Herbicidal rate of 40% or more and less than 70%)	3 (Herbicidal rate of 40% or more and less than 70%)	3 (Herbicidal rate of 40% or more and less than 70%)	1 (Herbicidal rate of 5% or more and less than 20%)	3 (Herbicidal rate of 40% or more and less than 70%)	3 (Herbicidal rate of 40% or more and less than 70%)	0 (Herbicidal rate of 5% or less (almost no effect))	2 (Herbicidal rate of 20% or more and less than 40%)	2 (Herbicidal rate of 20% or more and less than 40%)	3 (Herbicidal rate of 40% or more and less than 70%)	2 (Herbicidal rate of 20% or more and less than 40%)	4 (Herbicidal rate of 70% or more and less than 90%)	2 (Herbicidal rate of 20% or more and less than 40%)	5 (Herbicidal rate of 90% or more (almost completely withered))							Herbicidal effect by foliage application, L: windgrass (windgrass [4]): 1 (Herbicidal rate of 5% or more and less than 20%); Herbicidal effect by foliage application, H: barnyard grass (barnyard grass): 2 (Herbicidal rate of 20% or more and less than 40%)
COc1ccc(-c2sc3cc(Cl)c(Cl)cc3c2-c2c(O)c(C)nn(C)c2=O)cc1 [5-043]	2 (Herbicidal rate of 20% or more and less than 40%)	4 (Herbicidal rate of 70% or more and less than 90%)	3 (Herbicidal rate of 40% or more and less than 70%)	0 (Herbicidal rate of 5% or less (almost no effect))	0 (Herbicidal rate of 5% or less (almost no effect))	0 (Herbicidal rate of 5% or less (almost no effect))	0 (Herbicidal rate of 5% or less (almost no effect))	3 (Herbicidal rate of 40% or more and less than 70%)	0 (Herbicidal rate of 5% or less (almost no effect))	0 (Herbicidal rate of 5% or less (almost no effect))	0 (Herbicidal rate of 5% or less (almost no effect))	5 (Herbicidal rate of 90% or more (almost completely withered))	0 (Herbicidal rate of 5% or less (almost no effect))	0 (Herbicidal rate of 5% or less (almost no effect))							Herbicidal effect by foliage application, L: windgrass (windgrass [4]): 0 (Herbicidal rate of 5% or less (almost no effect)); Herbicidal effect by foliage application, H: barnyard grass (barnyard grass): 0 (Herbicidal rate of 5% or less (almost no effect))
COc1ccccc1-c1sc2cc(C)c(C)cc2c1-c1c(O)c(C)nn(C)c1=O [5-090]	3 (Herbicidal rate of 40% or more and less than 70%)	5 (Herbicidal rate of 90% or more (almost completely withered))			0 (Herbicidal rate of 5% or less (almost no effect))	3 (Herbicidal rate of 40% or more and less than 70%)		2 (Herbicidal rate of 20% or more and less than 40%)		1 (Herbicidal rate of 5% or more and less than 20%)	3 (Herbicidal rate of 40% or more and less than 70%)	3 (Herbicidal rate of 40% or more and less than 70%)	0 (Herbicidal rate of 5% or less (almost no effect))	0 (Herbicidal rate of 5% or less (almost no effect))	4 (Herbicidal rate of 70% or more and less than 90%)	5 (Herbicidal rate of 90% or more (almost completely withered))	1 (Herbicidal rate of 5% or more and less than 20%)	0 (Herbicidal rate of 5% or less (almost no effect))	4 (Herbicidal rate of 70% or more and less than 90%)	4 (Herbicidal rate of 70% or more and less than 90%)	
CCCC(=O)Oc1c(C)nn(C)c(=O)c1-c1c(-c2ccccc2OCC)sc2cc(C)c(C)cc12 [5-095]	4 (Herbicidal rate of 70% or more and less than 90%)	4 (Herbicidal rate of 70% or more and less than 90%)			0 (Herbicidal rate of 5% or less (almost no effect))	0 (Herbicidal rate of 5% or less (almost no effect))		5 (Herbicidal rate of 90% or more (almost completely withered))		3 (Herbicidal rate of 40% or more and less than 70%)	4 (Herbicidal rate of 70% or more and less than 90%)	5 (Herbicidal rate of 90% or more (almost completely withered))	4 (Herbicidal rate of 70% or more and less than 90%)	0 (Herbicidal rate of 5% or less (almost no effect))	3 (Herbicidal rate of 40% or more and less than 70%)	5 (Herbicidal rate of 90% or more (almost completely withered))	5 (Herbicidal rate of 90% or more (almost completely withered))	3 (Herbicidal rate of 40% or more and less than 70%)	4 (Herbicidal rate of 70% or more and less than 90%)	4 (Herbicidal rate of 70% or more and less than 90%)	
CCOc1cc(F)ccc1-c1sc2cc(C)c(C)cc2c1-c1c(O)c(C)nn(C)c1=O [5-103]	4 (Herbicidal rate of 70% or more and less than 90%)	5 (Herbicidal rate of 90% or more (almost completely withered))			4 (Herbicidal rate of 70% or more and less than 90%)	3 (Herbicidal rate of 40% or more and less than 70%)		4 (Herbicidal rate of 70% or more and less than 90%)		4 (Herbicidal rate of 70% or more and less than 90%)	4 (Herbicidal rate of 70% or more and less than 90%)	5 (Herbicidal rate of 90% or more (almost completely withered))	3 (Herbicidal rate of 40% or more and less than 70%)	2 (Herbicidal rate of 20% or more and less than 40%)	4 (Herbicidal rate of 70% or more and less than 90%)	5 (Herbicidal rate of 90% or more (almost completely withered))	5 (Herbicidal rate of 90% or more (almost completely withered))	4 (Herbicidal rate of 70% or more and less than 90%)	5 (Herbicidal rate of 90% or more (almost completely withered))	5 (Herbicidal rate of 90% or more (almost completely withered))	
